Reference: patent US8778304B2, “TSPO-targeting compounds and uses thereof” (The Johns Hopkins University, priority 2010, dated 2014)

Legend:
[1] = molecular target: T1, TSPO (Mus musculus, UniProt P50637); settings: Sandhoff mice at 4 months of age; cited from earlier work
[2] = test system: TSPO; settings: cited from earlier work
[3] = molecular target: T1, TSPO; test: Quantitative receptor autoradiography with [125I]-IodoDPA713 on Sandhoff mouse brain sections; type: binding; parameters: Fresh-frozen brains were sectioned (20 μm) on a freezing cryostat in the horizontal plane; from tissue; host or cells: mouse brain sections (fresh-frozen for A4, PLP-fixed for A5)
Procedure: Fresh-frozen brains were sectioned (20 μm) on a freezing cryostat in the horizontal plane. Brain sections were thaw-mounted onto poly-L-lysine-coated slides (Sigma-Aldrich, St. Louis, Mo.) and stored at −20° C. until used. [^125I]-IodoDPA713 autoradiography to measure TSPO levels were performed on adjacent brain sections using the same procedures. Slides were thawed and dried at 37° C. for 30 min and prewashed in 50 mM Tris-HCl buffer (pH 7.4) for 5 min at room temperature. Sections were then incubated in 0.5 nM [^125I]-IodoDPA713 in buffer for 30 min at room temperature. For non-specific binding, adjacent sections were incubated in the presence of […] racemic PK11195. The reaction was terminated by two 3-min washes in cold buffer (4° C.) and two dips in cold deionized water (4° C.). Sections incubated with [^125I]-IodoDPA713 were apposed to Kodak Bio-Max MR films with [^125I]-Microscales (GE Healthcare, Piscataway, N.J.) for 1 h. Images were acquired and quantified using the MCID software (InterFocus Imaging Ltd, Cambridge, England).

[4] = molecular target: T1, TSPO; test: [125I]-IodoDPA713 microSPECT/CT dynamic in vivo imaging of TSPO in Sandhoff disease mice; parameters: Fresh-frozen brains were sectioned (20 μm) on a freezing cryostat in the horizontal plane; from tissue; host or cells: mouse brain sections (fresh-frozen for A4, PLP-fixed for A5)
Procedure: (§1) An X-SPECT small-animal SPECT/CT system (Gamma Medica-Ideas) was used for image acquisition. Each mouse was anesthetized with isofluorane prior to imaging. About 1-2 mCi of [^125I]-IodoDPA713 was injected into each mouse via intravenous injection, and images were acquired immediately after injection. The SPECT projection data were acquired using 2 low-energy, high-resolution parallel-hole collimators with a radius of rotation of 4.65 cm (spatial resolution, 1.6 mm). The tomographic data were acquired in 64 projections over 360° at 20 s per projection. After tomography, CT was acquired in 512 projections to allow anatomic coregistration. Data were reconstructed using the ordered subsets-expectation maximization algorithm and analyzed using AMIDE software (free software provided by SourceForge). Data was analyzed using Analysis software, and time activity curve of the [^125I]-IodoDPA713 uptake was generated for each mouse. Three mice per genotype were scanned for the study. For the blocking study, non-radioactive IodoDPA713 (20 μM) was intravenously co-injected with [^125I]-IodoDPA713, and images were acquired immediately after [^125I] injection.

[5] = molecular target: T2, TSPO (Rattus norvegicus, UniProt P16257); test: In vitro autoradiography with [125I]1 on rat brain sections (neurotoxicant model of brain inflammation); type: binding
T2 construct: Fresh-frozen brains were sectioned (20 μm) on a freezing cryostat in the horizontal plane; from tissue; host or cells: rat brain sections (control and neurotoxicant-treated)
Procedure: Fresh-frozen brains were sectioned (20 μm) on a freezing cryostat in the horizontal plane. Brain sections were thaw-mounted onto poly-L-lysine-coated slides (Sigma) and stored at −20° C. until used. Autoradiography using [^125I]IodoDPA-713 ([^125I]1) was performed on adjacent brain sections using the following procedures. Slides were thawed and dried at 37° C. for 30 min and prewashed in 50 mM Tris-HCl buffer (pH 7.4) for 5 min at room temperature. Sections were then incubated in 1.4 nM [^125I]1 in 50 mM Tris-HCl buffer for 30 min at room temperature. For non-specific binding, adjacent sections were incubated in the presence of 10 μM racemic PK11195. The reaction was terminated by two 3 min washes in cold buffer (4° C.) and two dips in cold deionized water (4° C.). Sections were air-dried and apposed to Kodak Bio-Max MR film for 1 h. Images were acquired using the MCID image analysis software (InterFocus Imaging Ltd., Cambridge, England).
The first study involved a model of brain inflammation in which rats were exposed to a seizure-inducing neurotoxicant (FIG. 2). Note that higher levels of [^125I]1 were present in the neurotoxicant-treated rat brain (FIG. 2B) than in control brain (FIG. 2A). Exposure of the tissue specimens to [^125I]1 to generate these images required only 60 min, as opposed to 4-5 weeks often needed for tritium-labeled compounds when exposing the samples to film.

[6] = molecular target: T1, TSPO; test: SPECT-CT imaging of LPS-induced lung inflammation in mice; type: in vivo; settings: for lung signal to background ratio: 1 h postinjection, lungs vs muscle
Procedure: Eight- to 10-week-old female CD-1 mice (Charles River Labs) were imaged. Mice were anesthetized by brief isoflurane sedation. While anesthetized, intranasal instillation was conducted by placing 10 μg/60 μL (167 μg/mL) of lipopolysaccharide (LPS) onto the nares (Szarka et al., “A murine model of pulmonary damage induced by lipopolysaccharide via intranasal instillation,” J. Immunol. Methods, vol. 202, pp. 49-57, 1997). The 60 μL sample was applied onto the nares as three 20 μL drops. Phosphate-buffered saline (PBS) was administered in a similar fashion and used as the control.
For single photon emission computed tomography-computed tomography (SPECT-CT) imaging 18.5 MBq (500 μCi) of [^125I]1 was injected via the tail vein into the LPS and PBS treated mice and imaged 1 h later, which corresponded to 24 h after the administration of LPS or PBS. That time point was chosen since it represents the time at which there is maximum inflammation in the lungs, as determined by a time course study with histologic correlation (data not shown). Each mouse was anesthetized with isoflurane and maintained under 1-2% isoflurane in oxygen. The mouse was positioned on the X-SPECT (Gamma Medica, Northridge, Calif.) gantry and was scanned using two opposing low energy pinhole collimators (Gamma Medica) rotating through 360° in 3° increments for 20 s per increment. Images were reconstructed using LumaGem software that accompanies the X-SPECT. Immediately following SPECT acquisition, the mice were scanned by CT over a 3-cm field-of-view using a 600-μA, 50 kV beam. […] Data were reconstructed using the ordered subsets-expectation maximization (OS-EM) algorithm. The signal to background ratio was calculated from the images by drawing regions of interest over the lungs (signal) and muscle, (background).

[7] = molecular target: T1, TSPO; test: [125I]-IodoDPA713 microSPECT/CT imaging of heart in coxsackievirus-induced myocarditis mice; type: in vivo
Procedure: as §1, with “treatment” for “genotype”, “study.” for “study. For the blocking study, non-radioactive IodoDPA713 (20 μM) was intravenously co-injected with [^125I]-IodoDPA713, and images were acquired immediately after [^125I] injection.”

[8] = molecular target: T3, TSPO (Homo sapiens, UniProt P30536); settings: cited from earlier work
[9] = molecular target: T3, TSPO; settings: first human study; cited from earlier work

T3 sequence (P30536 whole entry): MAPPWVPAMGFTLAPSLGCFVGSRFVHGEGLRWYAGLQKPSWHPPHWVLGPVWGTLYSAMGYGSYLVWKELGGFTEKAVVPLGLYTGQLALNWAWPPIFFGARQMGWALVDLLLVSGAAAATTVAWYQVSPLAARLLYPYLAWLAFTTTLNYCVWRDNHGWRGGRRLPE

CCC(C)N(C)C(=O)c1cc2ccccc2c(-c2ccccc2Cl)n1 (centres unmarked) [[^11C]PK11195]
PET uptake in Sandhoff mice compared to wildtype [1]: higher
brain uptake ([2]; in vivo): poor brain uptake
non-specific binding ([2]; in vivo): significant non-specific binding

CCN(CC)C(=O)Cc1c(-c2ccc(OC)c([125I])c2)nn2c(C)cc(C)nc12 [[^125I]1, N,N-Diethyl-2-[2-(3-[^125I]-iodo-4-methoxyphenyl)-5,7-dimethylpyrazolo[1,5-a]pyrimidin-3-yl]acetamide]
binding in cerebellum, Sandhoff versus wildtype ([3]; 2 months, did not reach statistical significance, p=0.098): modest increase
binding to TSPO in thalamus, Sandhoff versus wildtype ([3]; 2 months, p=0.0007): significant increases
binding to TSPO in brainstem, Sandhoff versus wildtype ([3]; 2 months, p=0.0011): significant increases
binding in hippocampus, Sandhoff versus wildtype ([3]; 2 months, p=0.63): no significant increase
binding in cerebral cortex, Sandhoff versus wildtype ([3]; 2 months, p=0.98): no significant increase
binding in thalamus, Sandhoff versus wildtype ([3]; 3 months, p<0.0001): increased TSPO binding
binding in brainstem, Sandhoff versus wildtype ([3]; 3 months, p=0.0016): increased TSPO binding
binding in cerebral cortex, Sandhoff versus wildtype ([3]; 3 months, p=0.0037): increased binding
binding in cerebellum, Sandhoff versus wildtype ([3]; 3 months, p=0.0151): increased binding
binding in hippocampus, Sandhoff versus wildtype ([3]; 3 months, p=0.5912): no increased TSPO binding
tracer uptake (SUV) in thalamus, Sandhoff versus wildtype ([4]; 2 months, p=0.0484): statistically significant increase
tracer uptake (SUV) in brainstem, Sandhoff versus wildtype ([4]; 3 months, p=0.0172): statistically significant increase
tracer uptake with blocker versus without blocker ([4]; Sandhoff mouse, co-injected nonradioactive IodoDPA713 (20 μM)): reduced uptake
tracer uptake (SUV) in thalamus, cerebellum and brainstem, Sandhoff versus wildtype ([4]; quantitative analysis, FIG. 8K): trend of increased uptake
tracer uptake in thalamus, Sandhoff versus wildtype (time-activity curve) ([4]; thalamus, FIG. 8J): consistently had higher uptake
level of [125I]1 binding in neurotoxicant-treated rat brain versus control brain ([5]; 1.4 nM tracer, horizontal brain sections, FIG. 2A/2B): higher levels
blocking of [125I]1 uptake by PK11195 (specificity for TSPO) ([5]; neurotoxicant-treated rat, 10 μM PK11195, FIG. 2C): almost completely blocked
lung signal to background ratio ([6]; LPS treated mouse): 21.2
uptake in inflamed mouse lungs relative to normal lungs ([6]; SPECT-CT, FIG. 3): 1.5 fold
lung signal to background ratio ([6]; control mouse): 14.6
organ specificity of increased uptake (lungs and liver also analyzed) ([7]; coxsackievirus-injected mice): heart-specific
tracer uptake (SUV) in heart, coxsackievirus-injected versus PBS-injected control mice ([7]; n=3, p<0.05, FIG. 15): statistically significant increase

CCN(CC)C(=O)Cc1c(-c2ccc(OC)cc2)nn2c(C)cc(C)nc12 [DPA-713, N,N-diethyl-2-[2-(4-methoxy-phenyl)-5,7-dimethyl-pyrazolo[1,5-a]pyrimidin-3-yl]-acetamide]
affinity for TSPO relative to PK11195 [8]: nearly twice

CCN(CC)C(=O)Cc1c(-c2ccc(OC)cc2)nn2c(C)cc(C)nc12 [[^11C]DPA-713]
brain uptake relative to [11C]-PK11195 ([2]; PET imaging): higher brain uptake
signal-to-noise ratios relative to [11C]PK11195 ([2]; rodent model of brain injury): higher signal-to-noise ratios
binding potential relative to [11C]PK11195 [9]: higher binding potential
